These results are taken from a melting point compilation (Tetko et al.; mined from patent text by program, amines drawn as free bases though some values may be those of a salt).

The term melting point denotes the temperature, or range, at which the solid turns liquid.

A value given as a limit tells only on which side of the number the result lay.

Take `Cc1noc(NS(=O)(=O)c2ccc(Nc3ccc(N)cc3N)cc2)c1C`: the melting point lay within 181 to 183 °C.
To `CN1C(=O)[C@H](NC(=O)CCc2ccc(Cl)cc2Cl)N=C(c2ccccc2)c2cc(N)ccc21` belongs 179 to 180 °C; to `CC(C)OC(=O)N1CCC(NC(=O)N2CCn3c(c(C(N)=O)c(C#N)c3C3CC3)C2)CC1`, 181 to 182 °C.
Then `Cc1noc(C)c1S(=O)(=O)Nc1ccc(Cl)cc1`, with 144 °C; and `Cc1ccc(-c2ccccc2C(=O)O)cc1C(=O)NCC12CC3CC(CC(C3)C1)C2`, with 85 to 92 °C.
To `CCc1c(-c2cccnn2)ssc1=S` belongs 130 °C.
`CCCCc1nc(C(=O)O)c(Sc2ccc(OC)cc2)n1Cc1cc2c(cc1Cl)OCO2`: the melting point is 82 °C.
Then `C(#Cc1cccs1)C1=CCN(Cc2c[nH]c3ncccc23)CC1`, with 191 to 193 °C.
Then `O=C(O)c1ccccc1Nc1ccc(O)c(Cl)c1`, with 180 to 183 °C; and `COc1cc2cc(C=O)c(Cl)nc2cc1F`, with 180 °C; and `CCCN(Cc1ccc(-c2ccccc2-c2nnn[nH]2)cc1)c1nn(C)cc1C(=O)O`, with 101 to 105 °C.
For `CCCCc1nn(-c2cc(C(=O)OC)ccc2Cl)c(=O)n1Cc1ccc(-c2ccccc2S(=O)(=O)NC(C)(C)C)cc1`, the melting point fell in the range of 65 to 67 °C.
`CCCN1Cc2cc(Oc3cccc(NCc4c(C)cc(C)cc4C)c3)ccc2N=C1N` showed a melting point of 238 °C.
Then `COc1ccc(CCNC[C@H](O)COc2ccc(-c3nc(C(C)=O)c[nH]3)cc2)cc1OC`, with 138 to 142 °C.
To `CNCc1ccsc1CC(=O)O` belongs 181 to 182 °C; to `CNc1nc(-c2ccccc2)c(-c2nc3ccccc3c(=O)n2-c2cccc(C)c2)s1`, 186 to 187 °C; to `CCCCn1c(C)c(Br)c(=O)c(C(=O)Nc2ccc(Br)cc2C)c1C`, 190 to 192 °C.
`C#CCN(Cc1ccc2nc(NC(=O)C(C)(C)C)[nH]c(=O)c2c1)c1ccc(C#N)cc1`: the melting point was in the range of 183 to 186 °C.
To `Cc1ccc(N=c2scc(-c3ccc(Cl)c(S(=O)(=O)N(C)C)c3)n2C)c(C)c1` belongs 152 to 154 °C; to `Nc1nc(N)nc(N2CC=CCC2)n1`, 200 to 202 °C; to `Nc1cc(SCc2ccccc2)ccc1[N+](=O)[O-]`, 113 to 115 °C.
To `CC(=O)N[C@@H](C(=O)Oc1ccccc1)C(C)(C)SN=O` belongs 120 °C; to `Cc1cccc2c1nc(COc1ccc(Cl)cc1)n2CCC(C)CC1NCCc2ccccc21` (racemic), 114 to 116 °C; to `CN(C)c1ccc(C(=O)c2ccc(OCCO)cc2)cc1`, 142 to 143 °C.
In the case of `N=C(N)c1ccc(-c2ccc(Nc3ccc(CCC(=O)O)cc3)nn2)cc1`, the melting point is over 260 °C.
As to `COC(=O)CN(CCNC(=O)OC(C)(C)C)C(=O)Cc1cc2ccc(C)nc2[nH]c1=O`, the melting point is 98 to 100 °C.
The compound `COC(=O)c1cc(S(N)(=O)=O)c(F)cc1N` displayed a melting point of 209 to 211 °C.
To `CCOC(=O)c1cn(-c2ccc(F)cc2)c2cc(-c3cc(C)no3)ccc2c1=O` belongs 214 to 216 °C; to `N[C@@H](CC1CCCCC1)[C@@H](O)[C@@H]1CCCS1`, 58 to 59 °C.
Then `Cc1nnc2c3ccc(Cl)cc3c(-c3ccccc3)nn12`, with 236 to 238 °C.
Compound `Cc1cc(-c2cccnc2)n2ncc(C(=O)c3ccccc3)c2n1` showed a melting point of 196 to 198 °C.
In turn, `COC1(C(=O)O)C=CC(OCc2ccccc2)=CC1` (stereo not given) registered a melting point of 172 to 173 °C.
For the compound `O=C(CC(CC1CCCCC1)C(=O)O)c1ccco1` (stereo not given), the melting point lay within 91 to 94 °C.
`O=C(O)COc1cccc2c1CCC(Cc1nc(C(c3ccccc3)c3ccccc3)co1)C2` (stereo not given) registered a melting point of 130 to 132 °C.
The compound `CC(=O)c1ccc(-c2cccc(-c3nc(C(C)C)[nH]c3-c3cccc(C)n3)c2)cc1` showed a melting point of 84 to 87 °C.
Then `O=C1CCC(c2ccccc2)=NN1c1cc(-c2ccnc(Nc3cccc(Cl)c3)n2)ccn1`, with 144 to 146 °C; and `Cc1ccc(CO)cc1NC(=O)c1cccc([N+](=O)[O-])c1`, with 198 to 200 °C; and `CN(Cc1ccc2c(Br)c(OCc3nnn[nH]3)ccc2c1)C(=O)c1cn(C)c2ccccc12`, with 227 to 228 °C.
To `CCn1cc(F)c(N=CN(C)C)nc1=O` belongs 157 to 160 °C; to `Nc1cc(NC(=O)Nc2ccccc2)ccn1`, over 290 °C.
On to `COc1cc2c(cc1Nc1ncc(Cl)c(N[C@H]3[C@@H](C(N)=O)[C@@H]4C=C[C@H]3C4)n1)CCN(CCS(C)(=O)=O)CC2`, for which the melting point lay within 132 to 146 °C.
The compound `COc1cc2c(cc1Cl)C(Cl)(c1ccccc1Cl)C(=O)N2` (stereo not given) showed a melting point of 237 to 240 °C.
To `NN1C(=O)c2ccc(Cl)cc2C1=O` belongs 172 to 175 °C; to `CCOP(=O)(Cc1cc(C)cc(C)n1)OCC`, 109 to 112 °C.
To `c1coc(-c2nnc(-n3ccnc3)c3ccccc23)c1` belongs 151 to 152 °C; to `CC(C)c1cccc(C(C)C)c1NC(=O)CS(=O)(=O)Nc1c(C(C)C)cccc1C(C)C`, 202 to 205 °C; to `COC(=O)C(C(=O)OC)C(C)(N)C(Cc1ccccc1[N+](=O)[O-])c1ccccc1` (stereo not given), 114 °C.
Compound `C[C@H](NC(=O)OCc1ccccc1)C(=O)N[C@@H](C)C(=O)Nc1ccccc1` had a melting point of 219 to 221 °C.
In turn, `CCCCCCCCCCCCCCc1ccc(OCC2COC(C)(C)O2)cc1` (stereo not given) came in with a melting point of 52 to 53 °C.
Consider `CCCCOc1ccc(-n2cc(C(=O)OCC)cn2)cc1C#N`, for which the melting point is 132 °C.
`COc1cc(NC(=O)NS(=O)(=O)c2ccccc2Cl)nc(OC)n1` displayed a melting point of 193 to 196 °C.
Take `Clc1ccc2c(c1)CNc1cc(Cl)ccc1O2`: the melting point fell in the range of 103 to 105 °C.
Regarding `COC(=O)c1ccc2c(c1)nc(C)n2N`, the melting point was 220 to 222 °C.
`CC(C(N)=O)c1ccc2c(c1)C(=O)Cc1cccnc1S2` (stereo not given): the melting point lay in the range of 190 to 192 °C.
Compound `CC(=O)SCC1CN2CCCC(C(=O)OC(C)(C)C)N2C1=O` (stereo not given) came in with a melting point of 92 to 93 °C.
`CC(C)(C)OC(=O)CN1C(=O)C(NC(=O)Nc2cccc(Cl)c2)CC(c2ccccc2)CC1Cc1ccccc1` (stereo not given): the melting point lay within 95 to 110 °C.
For `CCCS(=O)(=O)ON=C(Cl)c1ccc(C)cc1`, the melting point was in the range of 57.5 to 60.5 °C.
To `N#Cc1cnc2cc(/C=C/c3ccncc3)sc2c1Nc1ccc(Oc2ccccc2)cc1` belongs 240 to 241 °C; to `NC(=O)N1CCN(c2nn(-c3ccccc3)c3ccccc23)CC1`, 151 to 153 °C; to `CCOP(=O)(OCC)C(OC)c1ccc(N)cc1` (stereo not given), 100 to 101 °C.
To `CCOC(=O)C1=C(C)NC(COC(=O)COc2ccc(Cl)cc2)=C(C(=O)OCC)C1c1ccccc1[N+](=O)[O-]` (stereo not given) belongs 86 to 88 °C.
In turn, `CNC(=O)c1ccccc1NC(=O)COc1ccc(C(C)=O)cc1` had a melting point of 252 to 253 °C.
To `CCOC(=O)C1=C(O)C(=O)NCC1` belongs 142 to 148 °C; to `Cc1[nH]cnc1CCC(=O)N(C)C`, 62 to 64 °C.
`CC(=O)NC1CC(n2cc(C=CBr)c(=O)[nH]c2=O)OC1CBr` (stereo not given): the melting point is 178 to 180 °C.
`C=Cc1ccc(S(=O)(=O)NS(=O)(=O)c2ccccc2)cc1` had a melting point of 145 to 147 °C.
To `CNCC(O)c1cccn1C` (stereo not given) belongs 64 to 66 °C; to `COC(=O)/C=C/n1cnc2ccc(O)cc2c1=O`, 252 to 256 °C; to `CC(C)Nc1nc2cc(Cl)c(Cl)cc2[nH]1`, 218 to 220 °C.
Then `CNC(=O)c1cc(C(=O)NOCC2CC2)c(Nc2ccc(I)cc2C)c(F)c1F`, with 198 to 202 °C.
For the compound `O=Cc1cccc(Oc2ccccc2)c1F`, the melting point fell in the range of 75 to 77 °C.
The compound `OC/C=C/c1ccc(OCc2coc(-c3ccccc3)n2)c(F)c1` came in with a melting point of 134 to 135 °C.
In the case of `CCOC(=O)c1c(C)noc1NS(=O)(=O)c1ccccc1-c1ccc(CC(C)C)cc1`, the melting point lay in the range of 133 to 134 °C.
`O=C(Cc1ccccc1)Nc1ccc(-c2ccc(C(=O)O)c(=O)[nH]2)cc1` registered a melting point of over 280 °C.
Then `Fc1cccc(F)c1-c1ncc(-c2ccc(Br)cc2)nn1`, with 180 to 181 °C; and `Cc1nc(-c2ccc(O)c(C)c2O)no1`, with 224 to 225 °C.
`CCCCCCC(Oc1ccc(C2=CCCCCCC2)cc1)C(=O)O` (stereo not given) returned a melting point of 55 to 57 °C.
To `CN(C)C(=O)N1CCC(=NO)c2cc(F)ccc21` belongs 147 to 150 °C.
Then `Nc1ncc(-c2cccc(Cl)c2Cl)c(Cl)n1`, with 228 to 230 °C; and `CC(=O)c1cccc(NC(=O)C(C)(C)C)c1`, with 130 to 133 °C; and `COc1ccc(N2CCOCC2)c2sc(C(=O)NC3CCCCC3=O)nc12` (stereo not given), with 165 °C.
On to `CC[C@H]1CN(c2c(F)cc3c(=O)c(C(=O)O)cn([C@@H]4C[C@@H]4F)c3c2OC)C[C@H]1N`, for which the melting point lay within 217 to 219 °C.
As for `COc1ccc(S(=O)(=O)Nc2nsc(-c3ccc(Cl)cc3)n2)cc1OC`, the melting point lay in the range of 220 to 221 °C.
Turning to `O=C(NN=CC=Cc1ccc([N+](=O)[O-])o1)c1cn2ccsc2n1`, the melting point was 332 °C.
To `OC1CCCCc2cc(OCC3CCCCC3)ccc21` (stereo not given) belongs 102 to 103 °C; to `CC1(c2ccc(C(O)C(C)(C)C)cc2)OCCO1` (stereo not given), 75 to 80 °C.
Then `CC(C)(C)OC(=O)N1CCC(n2nnc(-c3cnc(-c4ccccc4)nc3)n2)CC1`, with 178 to 180 °C; and `O=C(N[C@@H](CC1CCCCC1)C(=O)N[C@@H](Cc1ccccc1)C(=O)CSCc1ccco1)OCc1ccccc1`, with 124 to 125 °C; and `COC(=O)c1cc(Cl)c(Oc2ccc(OC)c(Cc3ccc(F)cc3)c2)c(Cl)c1`, with 108 to 110 °C.
To `OCC1CCCN(c2nc(-c3ccccc3)nc3ccccc23)C1` (stereo not given) belongs 116 to 118 °C.
